Common to all, as to assay: inhibition of tumour cell growth, NCI panel, 48 h
Test [1] deals with 786-0.
Test [2] has as its system A549.
The test system of test [3] is ACHN.
The test system of test [4] is COLO 205.
Test [5] deals with EKVX.
For test [6], the system named is HL-60.
The subject of test [7] is HOP-62.
Test [8] deals with Hs-578T.
The test system of test [9] is KM12.
Test [10] concerns LOX IMVI.
Test [11] has as its system MCF7.
Test [12] concerns MDA-MB-435.
The test system of test [13] is MDA-N.
The test system of test [14] is MOLT-4.
The subject of test [15] is NCI-H522.
Test [16] deals with OVCAR-8.
Test [17] concerns SF-295.
The subject of test [18] is SF-539.
In test [19] the test system is SN12C.
In test [20] the test system is SNB-75.

The structures appear in SMILES notation. Where a name gives a salt, the structure may show the parent alone.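 Method: 48-hour compound exposure of cells in 96-well plates, five concentrations, linear interpolation of endpoints. GI50 marks 50% less growth.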 Activity calls are given as the source filed them. Cut-off read from the data, not from the text of the source: active = GI50 up to about 1.1 µM and inactive = higher.

Consider `CN1C[C@H](C(=O)N[C@]2(C)O[C@@]3(O)[C@@H]4CCCN4C(=O)[C@H](Cc4ccccc4)N3C2=O)C=C2c3cccc4[nH]cc(c34)C[C@H]21` [ERGOTAMINE TARTRATE], for which the GI50 in test [1] is 20 µM (inactive); in test [2] it was 37.8 µM (inactive); in [3] it was 21.8 µM (inactive); in test [4], 16.5 µM (inactive); in test [5], 30.8 µM (inactive); in [6] it was 19.2 µM (inactive). The GI50 in test [7] is 23.9 µM (inactive); in test [8], 10.2 µM (inactive); in [9] it was 28.8 µM (inactive); in [10] it was 15.5 µM (inactive); in test [11], 20.7 µM (inactive); in [12] it was 15.9 µM (inactive). Besides, the GI50 in [13] is 18.5 µM (inactive); in [14], 23.9 µM (inactive); in test [15], 16.3 µM (inactive); in [16], 19.3 µM (inactive); in [17], 19.3 µM (inactive); in test [18], 12.1 µM (inactive). Moreover, the results for the GI50 in [19] and in test [20] were 20 µM (inactive) and 35.6 µM (inactive), respectively.

As to `Cc1ccc2c(O)cc(-c3csc4ccccc34)nc2n1`, the GI50 in test [1] is < 0.01 µM (active); in test [2] it was 0.0164 µM (active); in test [3], < 0.01 µM (active); in [4] it was 0.0239 µM (active); in [5], 0.0344 µM (active); in test [6], < 0.01 µM (active). Moreover, the GI50 in test [7] is < 0.0138 µM (active); in test [8], 0.0101 µM (active); in test [9] it was < 0.01 µM (active); in test [10], < 0.0115 µM (active); in [11], 0.0131 µM (active); in test [12], < 0.01 µM (active). The GI50 was < 0.01 µM (active) in test [13]; < 0.01 µM (active) in [14]; < 0.01 µM (active) in test [15]; 0.0202 µM (active) in test [16]; < 0.01 µM (active) in test [17]; < 0.01 µM (active) in test [18]. In addition, the GI50 in test [19] was 0.0323 µM (active); in test [20], < 0.01 µM (active).

As to `CSC1=C(C#N)C(=O)N(c2ccc(C)cc2)C(=S)C1C#N` (stereo not given), the GI50 in [1] is > 100 µM (inactive); in test [2], > 100 µM (inactive); in [3], > 100 µM (inactive); in [4] it was > 100 µM (inactive); in test [5], > 100 µM (inactive); in test [6], 63.8 µM (inactive). The GI50 in [7], in [8], in test [9], in test [10], in test [11] and in test [12] was > 100 µM (inactive) throughout. The GI50 in [13], in test [14], in [15], in [16], in test [17] and in test [18] was > 100 µM (inactive) in each case. The GI50 is > 100 µM (inactive) in [19] and 77.1 µM (inactive) in test [20].

Take `CC(O)(Cc1ccccc1C#N)Cc1ccccc1C#N`: the GI50 in test [1] was > 100 µM (inactive); in test [2], > 100 µM (inactive); in test [3], 88.5 µM (inactive); in test [4], 70.8 µM (inactive); in test [5] it was > 100 µM (inactive); in test [6], 4 µM (inactive). The GI50 in test [7] is > 100 µM (inactive); in test [8], > 100 µM (inactive); in [9], 51.5 µM (inactive); in test [10] it was > 100 µM (inactive); in test [11], > 100 µM (inactive); in test [12], > 100 µM (inactive). The GI50 was > 100 µM (inactive) in test [13]; 28.6 µM (inactive) in test [14]; > 100 µM (inactive) in test [15]; 54.7 µM (inactive) in [16]; 74 µM (inactive) in test [17]; > 100 µM (inactive) in test [18]. The GI50 was > 100 µM (inactive) in [19] and 37 µM (inactive) in test [20].

Consider `Cc1ccc(CC2(OCCN(C)C)CCC(C(C)(C)C)CC2)cc1` (stereo not given), for which the GI50 in test [1] is 1.88 µM (inactive); in test [2] it was 7 µM (inactive); in [3], 8.02 µM (inactive); in [4], 1.48 µM (inactive); in test [5] it was 12.3 µM (inactive); in test [6] it was 2.02 µM (inactive). The GI50 was 2.55 µM (inactive) in test [7]; 8.04 µM (inactive) in test [8]; 2.86 µM (inactive) in test [9]; 1.63 µM (inactive) in test [10]; 3.08 µM (inactive) in test [11]; 2.4 µM (inactive) in [12]. The GI50 in test [13] is 2.28 µM (inactive); in test [14], 2.04 µM (inactive); in test [15], 4.88 µM (inactive); in test [16], 9.4 µM (inactive); in [17], 4.54 µM (inactive); in [18] it was 3.26 µM (inactive). The GI50 in test [19] is 5.97 µM (inactive); in test [20], 6.71 µM (inactive).

Consider `Cc1cc2c(cc1Cl)SC(NNc1ccc([N+](=O)[O-])cc1)=NS2(=O)=O`, for which the GI50 in [1], in test [2], in [3], in test [4], in test [5] and in test [6] was > 10 µM (inactive) in each case. Also, the GI50 in test [7], in [8], in test [9], in [10], in [11] and in test [12] was > 10 µM (inactive) each time. Moreover, the GI50 in test [13], in [14], in test [15], in test [16], in test [17] and in test [18] was > 10 µM (inactive) throughout. Also, the GI50 in test [19] and in test [20] was > 10 µM (inactive) each time.

In the case of `CN(/N=C\c1ccc2ccccc2c1)C1=NCCCCN1`, the GI50 is 15.8 µM (inactive) in [1]; 18.8 µM (inactive) in test [2]; 33.7 µM (inactive) in test [3]; 16.1 µM (inactive) in [4]; 19.7 µM (inactive) in test [5]; 15.1 µM (inactive) in test [6]. Besides, the GI50 in [7] was 19.2 µM (inactive); in [8], 20.6 µM (inactive); in [9], 20.9 µM (inactive); in test [10], 13.6 µM (inactive); in test [11], 18.2 µM (inactive); in test [12], 18.2 µM (inactive). Also, the GI50 was 16.3 µM (inactive) in [13]; 17.6 µM (inactive) in test [14]; 16.7 µM (inactive) in [15]; 29.8 µM (inactive) in test [16]; 15.7 µM (inactive) in test [17]; 21.7 µM (inactive) in [18]. In addition, the GI50 in [19] is 18.5 µM (inactive); in [20], 10.4 µM (inactive).

With `[O-][N+]1=NC(c2ccccc2)=C1c1ccccc1`, the GI50 in test [1] is > 50 µM (inactive); in test [2] it was > 50 µM (inactive); in test [3], > 50 µM (inactive); in test [4], > 50 µM (inactive); in test [5], > 50 µM (inactive); in [6] it was 11.4 µM (inactive). The GI50 in [7], in test [8], in [9], in test [10], in test [11] and in test [12] was > 50 µM (inactive) each time. Further, the GI50 in test [13], in [14], in test [15], in test [16], in test [17] and in test [18] was > 50 µM (inactive) each time. Further, the values for the GI50 in test [19] and in test [20] were > 50 µM (inactive) and 10.8 µM (inactive), respectively.

As to `CC1C/C(=N\N(C)C)C(C#N)(C#N)C1(C#N)C#N` (stereo not given), the GI50 in [1] was 3.7 µM (inactive); in [2], 24.8 µM (inactive); in test [3], 8.43 µM (inactive); in test [4] it was 1.82 µM (inactive); in test [5], 22 µM (inactive); in [6] it was 0.857 µM (active). Also, the GI50 in test [7] was 18 µM (inactive); in [8], 35.6 µM (inactive); in [9], 27 µM (inactive); in test [10], 7.14 µM (inactive); in [11], 16 µM (inactive); in test [12], 16.7 µM (inactive). In addition, the GI50 in test [13] was 17.8 µM (inactive); in test [14] it was 2.63 µM (inactive); in [15], 1.93 µM (inactive); in [16] it was 19.2 µM (inactive); in [17], 20.8 µM (inactive); in test [18], 18.1 µM (inactive). Also, the GI50 in [19] was 19 µM (inactive); in test [20], 9.64 µM (inactive).

For `CN/C(=N\CCSCc1nc[nH]c1C)NC#N` [CIMETIDINE], the GI50 is > 100 µM (inactive) in test [1]; > 100 µM (inactive) in [2]; > 100 µM (inactive) in [3]; > 100 µM (inactive) in test [4]; > 10 µM (inactive) in [5]; > 100 µM (inactive) in test [6]. The GI50 in test [7], in test [8], in test [9], in test [10], in test [11] and in test [12] was > 100 µM (inactive) each time. Moreover, the GI50 in test [13], in test [14], in test [15], in [16], in test [17] and in test [18] was > 100 µM (inactive) in each case. Also, the GI50 in test [19] is > 100 µM (inactive); in test [20], 33.3 µM (inactive).

For the origin of these results see ChEMBL document CHEMBL1201862, “PubChem BioAssay data set” (2004).
